Measured values taken from patent US7892569B2, “Methods of altering an immune response induced by CpG oligodeoxynucleotides” (The United States of America as represented by the …, priority 2005, dated 2011).

How the values were obtained:
pDC [1] = assay: Binding of FITC conjugated CpG ODN to purified pDC in the presence of scavenger receptor ligands (flow cytometry); assay type: cell-based, human; conditions: 50 μg/ml inhibitor, preincubated 20 min at 4° C., mean ± S.D
Protocol: (§1) FIGS. 3A-3D are bar graphs and plots showing the effect of scavenger receptor ligands on the binding and activity of CpG ODN. FIG. 3A is a bar graph of the results obtained when purified pDC were preincubated (20 minutes at 4° C.) with medium or with 50 μg/ml each of inhibitors followed by addition of 1 μM FITC conjugated ODN. Mean fluorescence intensity representing binding of FITC-ODN was assessed using flow cytometry. Results represent the mean±S.D of three independent experiments. FIG. 3B is a bar graph showing D ODN induced IFN-α from peripheral blood mononuclear cells (PBMC). Open bars: medium; dotted bars: chondroitin sulfate; right-striped bars: fucoidan; left-striped bars: dextran sulfate Production of IFN-α from PBMC (in the absence or presence of 50 μg/ml inhibitors) was determined by ELISA from 24 hour culture supernatants. FIG. 3C is a plot showing K ODN induced TNF-α production in pDC (in the absence or presence of 50 μg/ml dextran sulfate). TNF-α production was determined using intracytoplasmic cytokine staining (representative plots of three independent experiments). FIG. 3D is a plot showing the results obtained when purified pDC were incubated with 1 μM each of K or with 3 μM D ODN in the absence or presence of 50 μg/ml dextran sulfate. Upregulation of HLA-DR/CD54 was determined 24 hours later using flow cytometry.
To evaluate whether a scavenger receptor (SR) played a role in D ODN uptake and signaling, the ability of dextran sulfate and fucoidan (classical scavenger receptor ligands) to block the binding of CpG ODN to pDC was evaluated (Table 2 and Supplementary FIG. 3A).

pDC [2] = assay: Upregulation of HLA-DR/CD54 on purified pDC by CpG ODN in the absence or presence of dextran sulfate; assay type: cell-based, human; conditions: 24 hours, 50 μg/ml inhibitor
Protocol: as §1, with “FIG. 3A is a bar graph of the results obtained when purified pDC were preincubated (20 minutes at 4° C.) with medium or with 50 μg/ml each of inhibitors followed by addition of 1 μM FITC conjugated ODN.” left out, “FIG. 3B is a bar graph showing D ODN induced IFN-α from peripheral blood mononuclear cells (PBMC).” left out, “FIG. 3C is a plot showing K ODN induced TNF-α production in pDC (in the absence or presence of 50 μg/ml dextran sulfate).” left out

PBMC [3] = assay: CpG ODN induced cytokine secretion (TNF-α, IFN-α) in the absence or presence of scavenger receptor ligands; assay type: cell-based, human; conditions: 50 μg/ml inhibitor
Protocol: as §1, with “FIG. 3A is a bar graph of the results obtained when purified pDC were preincubated (20 minutes at 4° C.) with medium or with 50 μg/ml each of inhibitors followed by addition of 1 μM FITC conjugated ODN.” left out, “FIG. 3B is a bar graph showing D ODN induced IFN-α from peripheral blood mononuclear cells (PBMC).” left out, “FIG. 3C is a plot showing K ODN induced TNF-α production in pDC (in the absence or presence of 50 μg/ml dextran sulfate).” left out

PBMC [4] = assay: Cytokine production of PBMC preincubated with GM-6001 and stimulated with K or D ODN (ELISA); assay type: cell-based, human; conditions: 50 μM preincubation, 24 hours
Protocol: (§2) FIGS. 7A-7B are a plot and a bar graph showing the metalloproteinase inhibitor GM-6001 enhances CXCL16 expression and subsequent cytokine production induced by D ODN. PBMC were preincubated in the absence (open bars) or presence (filled bars) of GM-6001 (50 μM) for 30 minutes, washed and then stained for CXCL16 expression on pDC (see FIG. 7A) or stimulated with 1 μM of K or 3 μM D ODN for 24 hours (FIG. 7B). Cytokine production (IL-6 for K ODN and IFN-α D ODN) was assessed from culture supernatants using ELISA. Individual results from six different PBMC are shown.
(§3) CXCL16 expressed on the cell surface is cleaved by the metalloproteinase ADAM-10 (Abel et al., J Immunol. 2004 172(10):6362-72, 2004; Gough et al., J Immunol. 172(6):3678-85, 2004). […] Based on the observation that pDC expressing high levels of CXCL16 were more responsive to D ODN stimulation, human PBMC were incubated with GM6001 followed by K or D ODNs.

pDC [5] = assay: CXCL16 expression on pDC after preincubation of PBMC with GM-6001; assay type: cell-based, human; conditions: 50 μM, 30 minutes preincubation of PBMC
Protocol: as §2, §3

[6] = Cytokine induction by D ODN (statement in the description); assay type: cell-based; conditions: no test described
[7] = D ODN: 1 μM FITC conjugated ODN

Compound: Dextran sulfate
- % inhibition of binding to pDC (pDC [1]; [7]): > 50%
- % inhibition of binding to pDC (pDC [1]; D ODN: 1 μM FITC conjugated ODN, listed as Dextran Sulfate): 65.02 ± 5.8%
- % inhibition of binding to pDC (pDC [1]; K ODN: 1 μM FITC conjugated ODN): not
- % inhibition of binding to pDC (pDC [1]; K ODN: 1 μM FITC conjugated ODN, listed as Dextran Sulfate): 23.2 ± 8.8%
- % inhibition in the generation of HLA-DR/CD54 double positive cells (pDC [2]; 1 μM K ODN): 0.8 ± 1.8%
- % inhibition in the generation of HLA-DR/CD54 double positive cells (pDC [2]; 3 μM D ODN): 92.3 ± 5.8%
- % inhibition of cytokine secretion (PBMC [3]; D ODN induced IFN-α production from PBMC, ELISA): 90.3 ± 8.4%
- % inhibition of cytokine secretion (PBMC [3]; K ODN induced TNF-α production, intracytoplasmic staining): 5.8 ± 2.3%

Compound: CNC(=O)[C@H](Cc1c[nH]c2ccccc12)NC(=O)[C@@H](CC(=O)NO)CC(C)C [GM6001]
- effect on cells stimulated with K ODN (IL-6 production) (PBMC [4]; 1 μM K ODN): no effect
- increase of D ODN responsiveness of pDCs (IFN-α production) (PBMC [4]; 3 μM D ODN): 2 fold
- expression of CXCL16 on pDC (pDC [5]): increased

Compound: DV113: D ODN GGTGCATCGATACAGGGGGG (SEQ ID NO: 6) (DNA, backbone not given here; underlined bases phosphodiester, further chemistry not fully specified)
- induction of IFN-γ and IFN-α [6]: high levels

Compound: chondroitin sulfate
- % inhibition of binding to pDC (pDC [1]; [7]): not
